Consider eight molecules from PubChem BioAssay (NCI).

Test systems include UO-31 renal; HCT-15 colon; OVCAR-8 ovarian; SK-OV-3 ovarian; SNB-19 CNS; SNB-75 CNS; A549 NSCLC; RXF 393 renal; M14 melanoma; NCI-H23 lung; 786-0 renal; HCC-2998 colon; SF-295 CNS; T-47D breast; BT-549 breast; SK-MEL-2 melanoma; UACC-62 melanoma; MALME-3M melanoma; HCT-116 colon; HS 578T breast.
Experiment in all cases: NCI tumour cell line growth inhibition, 48 h

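Values below derive from 48-hour exposures of cells grown in 96-well plates, with endpoints linearly interpolated between the two concentrations bracketing the appropriate inhibition level. TGI marks complete inhibition of growth.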

With `COC(=O)C1CCC(=O)N1C(c1ccc(OC)cc1)c1cc(OC)c(OC)c(OC)c1` (stereo unspecified), the TGI in the assay on UO-31 renal was greater than 100 µM; with HCT-15 colon it was greater than 100 µM; with OVCAR-8 ovarian it was greater than 100 µM; in the assay with SK-OV-3 ovarian, greater than 100 µM; with SNB-19 CNS, greater than 100 µM; in the assay on SNB-75 CNS, greater than 94.7 µM. Moreover, the TGI is greater than 100 µM in the assay with A549 NSCLC; 0.361 µM with RXF 393 renal; 21.6 µM in the assay with M14 melanoma; greater than 100 µM with NCI-H23 lung; greater than 100 µM in the assay with 786-0 renal; 0.6 µM in the assay on HCC-2998 colon. The TGI is 0.465 µM in the assay with SF-295 CNS; greater than 100 µM in the assay with T-47D breast; greater than 100 µM in the assay on BT-549 breast; greater than 100 µM in the assay on SK-MEL-2 melanoma; greater than 100 µM with UACC-62 melanoma.

As to `CCn1c(SCC(=O)N/N=C2\SCC(=O)N2c2ccc(C)cc2)nc2ccccc2c1=O`, the TGI in the assay on MALME-3M melanoma is 45.6 µM; in the assay with UO-31 renal, 30.3 µM; with HCT-15 colon, greater than 100 µM; in the assay with OVCAR-8 ovarian, 35.5 µM; in the assay with SK-OV-3 ovarian it was 36 µM; with SNB-19 CNS it was 43.6 µM. The TGI is 35.9 µM in the assay with HCT-116 colon; 36.6 µM in the assay on SNB-75 CNS; 43.3 µM in the assay with A549 NSCLC; 53.8 µM with RXF 393 renal; greater than 100 µM in the assay with M14 melanoma; 42.2 µM in the assay with NCI-H23 lung. For the same molecule, the TGI with 786-0 renal is 35 µM; in the assay on HCC-2998 colon it was greater than 100 µM; in the assay with SF-295 CNS, 36.2 µM; in the assay on T-47D breast, 54.9 µM; in the assay on HS 578T breast it was 41.7 µM; with SK-MEL-2 melanoma, greater than 100 µM. The molecule also displayed a TGI in the assay on UACC-62 melanoma of 29.1 µM.

Turning to `CC1C(C)(C)C23CC12C1(OCCO1)C3Br` (stereo unspecified), the TGI in the assay with MALME-3M melanoma, in the assay with UO-31 renal, in the assay with HCT-15 colon, in the assay with OVCAR-8 ovarian, in the assay with SK-OV-3 ovarian and in the assay with SNB-19 CNS was greater than 100 µM each time. For the same molecule, the TGI in the assay on HCT-116 colon, in the assay with SNB-75 CNS, in the assay with A549 NSCLC, in the assay with RXF 393 renal, in the assay with M14 melanoma and in the assay with NCI-H23 lung was greater than 100 µM each time. Also, the TGI with 786-0 renal, with HCC-2998 colon, in the assay on SF-295 CNS, in the assay with BT-549 breast, in the assay on HS 578T breast and in the assay on UACC-62 melanoma was greater than 100 µM each time.

Regarding `CN1CCC2(CC1)SSC1(CCN(C)CC1)S2`, the TGI in the assay on UO-31 renal, in the assay on HCT-15 colon, in the assay on OVCAR-8 ovarian, in the assay on SK-OV-3 ovarian, in the assay with SNB-19 CNS and in the assay on HCT-116 colon was greater than 100 µM throughout. Moreover, the TGI with SNB-75 CNS, with A549 NSCLC, in the assay on M14 melanoma, with NCI-H23 lung, in the assay with 786-0 renal and in the assay on SF-295 CNS was greater than 100 µM throughout. Moreover, the TGI in the assay with BT-549 breast, with HS 578T breast, in the assay on SK-MEL-2 melanoma and in the assay with UACC-62 melanoma was greater than 100 µM each time.

Regarding `CC1CCN(C(C)C)P(=S)(Cc2ccccc2)O1` (stereo unspecified), the TGI with MALME-3M melanoma, in the assay with UO-31 renal, with HCT-15 colon, with OVCAR-8 ovarian, with SK-OV-3 ovarian and with SNB-19 CNS was greater than 100 µM each time. Also, the TGI in the assay on HCT-116 colon, with A549 NSCLC, in the assay with M14 melanoma, with NCI-H23 lung, with 786-0 renal and with HCC-2998 colon was greater than 100 µM in each case. Also, the TGI in the assay with SF-295 CNS was greater than 100 µM; in the assay on T-47D breast, 56.8 µM; with BT-549 breast, greater than 100 µM; with SK-MEL-2 melanoma it was greater than 100 µM; in the assay on UACC-62 melanoma, greater than 100 µM.

With `Cc1ccc2c(c1)nc1n2C(c2c(F)cccc2F)SC1` (stereo unspecified), the TGI in the assay with MALME-3M melanoma was 93.3 µM; in the assay on UO-31 renal it was greater than 100 µM; in the assay with HCT-15 colon it was 82.4 µM; in the assay on OVCAR-8 ovarian, greater than 100 µM; in the assay with SK-OV-3 ovarian, greater than 100 µM; in the assay with SNB-19 CNS it was greater than 100 µM. Moreover, the TGI with HCT-116 colon is 72.3 µM; in the assay on SNB-75 CNS, greater than 100 µM; with A549 NSCLC it was greater than 100 µM; in the assay with RXF 393 renal it was 96.4 µM; with M14 melanoma, greater than 100 µM; in the assay on NCI-H23 lung it was greater than 100 µM. The TGI with 786-0 renal was greater than 100 µM; in the assay with HCC-2998 colon, greater than 100 µM; in the assay with SF-295 CNS, greater than 100 µM; in the assay with T-47D breast, greater than 100 µM; with HS 578T breast it was 92.7 µM; with SK-MEL-2 melanoma, 48.2 µM.

Take `Cc1nc(OCc2ccccc2)c2ncn(CCO)c2n1`: the TGI with UO-31 renal, in the assay on SK-OV-3 ovarian, with SNB-19 CNS, in the assay with HCT-116 colon, with A549 NSCLC and in the assay on RXF 393 renal was greater than 100 µM each time. The TGI with M14 melanoma, with NCI-H23 lung, in the assay with 786-0 renal, in the assay on SF-295 CNS, with BT-549 breast and with HS 578T breast was greater than 100 µM in each case. Further, the TGI in the assay on SK-MEL-2 melanoma and in the assay on UACC-62 melanoma was greater than 100 µM each time.

Turning to `CCOC(=O)C12CCC(=O)N1N(C)c1ncccc1N2` (stereo unspecified), the TGI with UO-31 renal, with HCT-15 colon, with OVCAR-8 ovarian, in the assay with SK-OV-3 ovarian, with SNB-19 CNS and with HCT-116 colon was greater than 100 µM throughout. Moreover, the TGI with SNB-75 CNS, in the assay with A549 NSCLC, in the assay with RXF 393 renal, with M14 melanoma, in the assay with NCI-H23 lung and in the assay on 786-0 renal was greater than 100 µM in each case. Further, the TGI in the assay on HCC-2998 colon, in the assay on SF-295 CNS, with T-47D breast, in the assay on BT-549 breast and in the assay with UACC-62 melanoma was greater than 100 µM each time.
